The record followed here is ChEMBL document CHEMBL4130507, “Therapeutic investigations of novel indoxyl-based indolines: A drug target validation and Structure-Activity Relationship of angiotensin-converting enzyme inhibitors with cardiovascular regulation and thrombolytic potential” (Eur J Med Chem, 2017).

Activity calls are given as the source filed them. The rule behind the calls is not given here.

Data set [1] addresses T1, Angiotensin-converting enzyme (Homo sapiens, UniProt P12821). Put plainly: Inhibition of ACE (unknown origin) at IC50 using Hippuryl-L-Histidyl-L-Leucine as substrate after 60 mins by colorimetric method relative to control.
Data set [2] concerns Blood. In words: Thrombolytic activity in human blood after 2 hrs relative to control. Format: functional.
Data set [3] in a line: Antioxidant activity assessed as H2O2 free radical scavenging activity at IC50 after 1 hr by UV spectrophotometric analysis relative to control. It counts as functional.
The nature of data set [4]: Antioxidant activity assessed as H2O2 free radical scavenging activity after 1 hr by UV spectrophotometric analysis. Format: functional.
Data set [5] deals with T1, Angiotensin-converting enzyme. In words: Inhibition of ACE (unknown origin) using Hippuryl-L-Histidyl-L-Leucine as substrate after 60 mins by colorimetric method.
For the next data set, the system named is DNA. Put plainly: Inhibition of H2O2-induced Escherichia coli DH5alpha genomic DNA damage at 25 to 250 uL after 24 hrs by ethidium-bromide staining-based agarose gel electrophoresis. Format: nucleic-acid assay. The settings on record: Escherichia coli DH5[alpha].
Data set [6] concerns MCF7. Put plainly: Cytotoxicity against human MCF7 cells at IC50 after 24 to 72 hrs by MTT assay relative to control. It counts as functional. For orientation: Tetrazolium assays rely on reduction of a dye to a coloured formazan, in cell work by metabolically active cells.
Another data set has as its system MCF10. Put plainly: Cytotoxicity against human MCF10 cells at 10 to 150 ug/ml after 24 to 72 hrs by MTT assay. Format: cell-based.
Data set [7] concerns MCF7. Put plainly: Cytotoxicity against human MCF7 cells after 24 to 72 hrs by MTT assay. Format: functional, cell-based.
The subject of data set [8] is Blood. In words: Thrombolytic activity in human blood after 60 mins. Format: functional, tissue-based.
The subject of the next data set is Erythrocyte. Put plainly: Induction of membrane stabilization in human RBC assessed as reduction in hemolysis relative to control. Also on record: scale not given: the % may be the effect or the level left. Format: functional.
Data set [9] deals with Blood. Put plainly: Thrombolytic activity in human blood after 2 hrs. It counts as functional, tissue-based.

T1 sequence (P12821 whole entry): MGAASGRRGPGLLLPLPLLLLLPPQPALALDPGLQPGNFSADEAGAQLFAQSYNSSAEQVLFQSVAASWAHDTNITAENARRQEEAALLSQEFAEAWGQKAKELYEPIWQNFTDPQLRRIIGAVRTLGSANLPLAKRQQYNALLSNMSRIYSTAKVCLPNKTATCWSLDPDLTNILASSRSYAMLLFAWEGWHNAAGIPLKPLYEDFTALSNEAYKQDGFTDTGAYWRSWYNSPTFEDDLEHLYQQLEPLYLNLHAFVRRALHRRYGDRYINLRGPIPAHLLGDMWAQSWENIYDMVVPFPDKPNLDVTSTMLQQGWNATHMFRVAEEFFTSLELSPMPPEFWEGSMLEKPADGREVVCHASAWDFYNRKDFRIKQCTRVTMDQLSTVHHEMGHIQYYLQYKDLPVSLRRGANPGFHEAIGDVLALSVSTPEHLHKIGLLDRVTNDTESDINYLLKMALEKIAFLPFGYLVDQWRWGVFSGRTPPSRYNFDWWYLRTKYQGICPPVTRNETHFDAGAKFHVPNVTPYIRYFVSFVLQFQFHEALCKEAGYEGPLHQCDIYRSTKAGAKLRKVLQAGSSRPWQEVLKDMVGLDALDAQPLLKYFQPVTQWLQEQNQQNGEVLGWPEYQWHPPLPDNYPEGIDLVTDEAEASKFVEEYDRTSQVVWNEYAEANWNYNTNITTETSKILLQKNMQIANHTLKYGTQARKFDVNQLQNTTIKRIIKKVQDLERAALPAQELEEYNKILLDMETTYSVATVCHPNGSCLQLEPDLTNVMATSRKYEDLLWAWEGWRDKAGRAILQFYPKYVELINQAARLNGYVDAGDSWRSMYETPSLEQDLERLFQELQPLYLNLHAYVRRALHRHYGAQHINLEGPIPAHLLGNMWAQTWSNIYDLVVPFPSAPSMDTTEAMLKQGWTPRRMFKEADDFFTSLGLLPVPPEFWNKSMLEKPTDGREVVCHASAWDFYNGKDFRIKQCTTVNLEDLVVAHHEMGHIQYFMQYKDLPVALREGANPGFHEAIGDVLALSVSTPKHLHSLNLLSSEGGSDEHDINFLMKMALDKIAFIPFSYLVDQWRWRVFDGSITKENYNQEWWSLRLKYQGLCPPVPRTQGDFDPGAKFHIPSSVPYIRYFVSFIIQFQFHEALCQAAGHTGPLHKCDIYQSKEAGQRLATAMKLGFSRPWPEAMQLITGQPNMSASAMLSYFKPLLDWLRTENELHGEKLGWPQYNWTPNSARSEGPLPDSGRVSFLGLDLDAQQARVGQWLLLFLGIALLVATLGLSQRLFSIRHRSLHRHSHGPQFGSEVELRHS

For orientation: inhibition means the share of the control response that was lost under treatment. The term IC50 denotes the point on the concentration scale where inhibition reaches its midpoint. Regarding `COc1ccc(CN2C(=O)/C(=N\C(=S)NCc3cc4ccccc4cc3O)c3ccccc32)cc1`, the inhibition in [1] came to 88.5%. Besides, the Activity in the data set on Blood [2] was 83.5%; in data set [3] it was 78%; in [4], “Dose-dependent effect”. In data set [5], this compound came in with an IC50 of 7.64 nM. Besides, the inhibition entry with DNA is “Active”.

Regarding `O=C1/C(=N\C(=S)NCc2cc3ccccc3cc2O)c2ccccc2N1CCBr`, the Activity in the data set on MCF7 [6] is 82.94%; in the data set on Blood [2], 83.5%; with MCF10 it was “Non-Toxic”; in data set [3], 92.5%; in [4], “Dose-dependent effect”. This compound also registered an inhibition in data set [1] of 90.5%. Moreover, the IC50 in the data set on MCF7 [7] is 92 nM; in data set [5], 4.11 nM. The outcome with Blood [8] was Active. For the same compound, the inhibition result in the data set with DNA is “Active”.

The compound `CN1C(=O)/C(=N\C(=S)NCc2cc3ccccc3cc2O)c2ccccc21` yielded an inhibition in data set [1] of 66.5%. The figures for the Activity in [3] and in data set [4] were 74.1% and “Dose-dependent effect”, respectively. In data set [5], this compound gave an IC50 of 22.3 nM. The inhibition result in the data set on DNA is “inactive”.

Regarding `O=C1O[C@H]([C@@H](O)CO)C(O)=C1O`, the Activity in [3] was found to be 90.1%.

In turn, `CC(=O)CN1C(=O)/C(=N\C(=S)NCc2cc3ccccc3cc2O)c2ccccc21` yielded an inhibition in data set [1] of 24%. The results for the Activity in data set [3] and in [4] were 68.5% and “Dose-dependent effect”, respectively. The same compound registered an IC50 in data set [5] of 112 nM.

Take `O=C(O)CN1C(=O)/C(=N\C(=S)NCc2cc3ccccc3cc2O)c2ccccc21`: the Activity was 89.02% in the data set on MCF7 [6]; 83.5% in the data set on Blood [2]; “Non-Toxic” in the data set on MCF10; 98.1% in data set [3]; “Dose-dependent effect” in [4]; 96% in the data set on Erythrocyte. The compound further showed an inhibition in data set [1] of 96.1%. Moreover, the IC50 in the data set with MCF7 [7] came to 82 nM; in [5], 2.85 nM; in the data set on Blood [9], 35 nM. In addition, the outcome in the data set on Blood [8] was Active. Also, in the data set with DNA, the inhibition entry is “Active”.

In data set [1], `NCCCC[C@H](N[C@@H](CCc1ccccc1)C(=O)O)C(=O)N1CCC[C@H]1C(=O)O` gave an inhibition of 89.1%.

In [1], `CCCN1C(=O)/C(=N\C(=S)NCc2cc3ccccc3cc2O)c2ccccc21` gave an inhibition of 80.7%. Moreover, the Activity in [3] is 75.1%; in data set [4], “Dose-dependent effect”. Moreover, half-maximal inhibition in data set [5] (IC50) required 11.8 nM.

With `O=C1/C(=N\C(=S)NCc2cc3ccccc3cc2O)c2ccccc2N1C(=O)c1ccccc1`, the Activity with MCF7 [6] is 78.12%; with Blood [2], 83.5%; in the data set with MCF10 it was “Non-Toxic”; in data set [3], 89.5%; in data set [4], “Dose-dependent effect”. In data set [1], this compound showed an inhibition of 87.3%. Moreover, the half-maximal inhibitory concentration (IC50) amounted to 102 nM in the data set with MCF7 [7] and 8.84 nM in data set [5]. Also, the inhibition result in the data set on DNA was “Active”.

`CC(=O)N1C(=O)/C(=N\C(=S)NCc2cc3ccccc3cc2O)c2ccccc21` displayed an inhibition in data set [1] of 82.7%. Moreover, the Activity was 81.2% in [3] and “Dose-dependent effect” in data set [4]. The IC50 in data set [5] came out at 10.7 nM. In addition, the inhibition entry in the data set on DNA was “Active”.

In data set [1], `O=C1/C(=N\C(=S)NCc2cc3ccccc3cc2O)c2ccccc2N1c1ccccc1` showed an inhibition of 69.2%. Besides, the results for the Activity in data set [3] and in data set [4] were 80.8% and “Dose-dependent effect”, respectively. For the same compound, in [5], it took 19 nM to reach half-maximal inhibition (IC50).

The compound `O=C1/C(=N\C(=S)NCc2cc3ccccc3cc2O)c2ccccc2N1c1ccccc1Cl` returned an inhibition in data set [1] of 76.5%. Besides, the Activity in data set [3] is 82.7%; in data set [4], “Dose-dependent effect”. The IC50 in data set [5] stood at 15.1 nM.

In turn, `COc1cccc2c1C(=O)c1c(O)c3c(c(O)c1C2=O)C[C@@](O)(C(=O)CO)C[C@@H]3O[C@H]1C[C@H](N)[C@H](O)[C@H](C)O1` [DOXORUBICIN] came in with an Activity in the data set on MCF7 [6] of 78.42%.

`Cc1ccc(C(=O)N2C(=O)/C(=N\C(=S)NCc3cc4ccccc4cc3O)c3ccccc32)cc1` displayed an inhibition in data set [1] of 65%. Moreover, the results for the Activity in data set [3] and in data set [4] were 83.1% and “Dose-dependent effect”, respectively. Further, in data set [5], inhibition was half-maximal at 24.2 nM (IC50).

`COc1ccc(N2C(=O)/C(=N/C(=S)NCc3cc4ccccc4cc3O)c3ccccc32)cc1` came in with an inhibition in [1] of 86.4%. Also, the Activity in data set [3] is 79.4%; in data set [4] it was “Dose-dependent effect”. Moreover, the IC50 in data set [5] amounted to 9.82 nM.
